Data published in patent publication US20130303507A1 (Novartis AG, priority 2011, published 2013).

Target: Cdk9/cyclinT1 (Homo sapiens, UniProt P50750)
Assay: Cdk9/cyclinT1 IMAP protocol (fluorescence polarization)
Conditions: IC-50, CDK9; lower limit of assay 0.0005 micromolar

Sequence of Cdk9/cyclinT1 (P50750 whole entry): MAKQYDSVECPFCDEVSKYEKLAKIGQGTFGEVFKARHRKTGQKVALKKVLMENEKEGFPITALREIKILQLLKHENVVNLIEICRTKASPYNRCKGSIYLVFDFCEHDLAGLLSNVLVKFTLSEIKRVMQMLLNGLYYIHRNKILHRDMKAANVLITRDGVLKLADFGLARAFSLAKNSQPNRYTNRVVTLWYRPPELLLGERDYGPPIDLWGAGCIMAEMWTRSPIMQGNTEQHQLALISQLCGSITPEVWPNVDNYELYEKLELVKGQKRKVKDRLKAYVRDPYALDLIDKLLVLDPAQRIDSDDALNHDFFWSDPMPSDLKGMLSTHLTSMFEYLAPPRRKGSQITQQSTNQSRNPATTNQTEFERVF
Sequence of Cdk9/cyclinT1 (O60563 whole entry partner): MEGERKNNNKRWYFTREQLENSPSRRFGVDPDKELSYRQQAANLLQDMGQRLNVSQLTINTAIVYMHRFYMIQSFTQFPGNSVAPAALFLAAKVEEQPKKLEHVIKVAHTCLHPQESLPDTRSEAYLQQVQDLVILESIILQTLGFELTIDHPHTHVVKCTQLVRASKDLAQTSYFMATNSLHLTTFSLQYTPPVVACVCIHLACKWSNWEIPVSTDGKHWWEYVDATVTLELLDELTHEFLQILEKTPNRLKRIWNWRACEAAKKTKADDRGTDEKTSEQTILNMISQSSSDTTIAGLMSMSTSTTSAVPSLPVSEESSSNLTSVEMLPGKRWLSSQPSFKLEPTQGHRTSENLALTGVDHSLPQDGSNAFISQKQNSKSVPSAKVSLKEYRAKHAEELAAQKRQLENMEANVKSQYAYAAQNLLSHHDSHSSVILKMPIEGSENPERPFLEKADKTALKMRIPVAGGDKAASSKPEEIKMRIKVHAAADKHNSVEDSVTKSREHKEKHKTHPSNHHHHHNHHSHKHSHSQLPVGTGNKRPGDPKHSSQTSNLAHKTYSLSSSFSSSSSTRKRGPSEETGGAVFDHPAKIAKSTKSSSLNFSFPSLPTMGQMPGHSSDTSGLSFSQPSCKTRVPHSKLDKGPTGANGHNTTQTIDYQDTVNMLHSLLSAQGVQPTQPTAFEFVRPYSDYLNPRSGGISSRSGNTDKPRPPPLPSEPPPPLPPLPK

SMILES	IC50 [nM]
COCCNC(=O)[C@H]1CC[C@H](Nc2cc(-c3cccc(NCC4(C#N)CCOCC4)n3)c(Cl)cn2)CC1 [Compound 455, trans-4-((5′-chloro-6-(((4-cyanotetrahydro-2H-pyran-4-yl)methyl)amino)-[2,4′-bipyridin]-2′-yl)amino)-N-(2-methoxyethyl)cyclohexane-carboxamide]	0.8
CO[C@@H]1C[C@@H](Nc2cc(-c3cccc(NCC4(C#N)CCOCC4)n3)c(Cl)cn2)CC[C@@H]1N (single isomer, unassigned) [Compound 435]	≤ 0.5
CO[C@@H]1CCN([C@H]2CC[C@H](Nc3cc(-c4cccc(NCC5(C#N)CCOCC5)n4)c(Cl)cn3)CC2)C1 [Compound 477, 4-(((5′-chloro-2′-((trans-4-((R)-3-methoxypyrrolidin-1-yl)cyclohexyl)amino)-[2,4′-bipyridin]-6-yl)amino)methyl)tetrahydro-2H-pyran-4-carbonitrile]	0.8
N#CC1(CNc2cccc(-c3cc(N[C@H]4CC[C@H](N[C@H]5CCOC5)CC4)ncc3Cl)n2)CCOCC1 [Compound 469, 4-(((5′-chloro-2′-((trans-4-(((S)-tetrahydrofuran-3-yl)amino)cyclohexyl)amino)-[2,4′-bipyridin]-6-yl)amino)methyl)tetrahydro-2H-pyran-4-carbonitrile]	< 0.5
N#CC1(CNc2cccc(-c3cc(N[C@H]4CC[C@H](NC5CCOC5)CC4)ncc3Cl)n2)CCOCC1 (stereo partly drawn) [Compound 467, 4-(((5′-chloro-2′-((trans-4-((tetrahydrofuran-3-yl)amino)cyclohexyl)amino)-[2,4′-bipyridin]-6-yl)amino)methyl)tetrahydro-2H-pyran-4-carbonitrile]	< 0.5
C[C@H]1COCCN1[C@H]1CC[C@H](Nc2cc(-c3cccc(NCC4(C#N)CCOCC4)n3)c(Cl)cn2)CC1 [Compound 502, 4-((5′-chloro-2′-(trans-4-((S)-3-methylmorpholino)cyclohexyl-amino)-2,4′-bipyridin-6-ylamino)methyl)tetrahydro-2H-pyran-4-carbonitrile]	2.9
N#CC1(CNc2cccc(-c3cc(N[C@@H]4CC[C@@H](NC5CCOC5)C4)ncc3Cl)n2)CCOCC1 (stereo partly drawn) [Compound 411, 4-(((5′-chloro-2′-(((1R,3R)-3-((tetrahydrofuran-3-yl)amino)cyclopentyl)amino)-[2,4′-bipyridin]-6-yl)amino)methyl)tetrahydro-2H-pyran-4-carbonitrile]	1.8
N#CC1(CNc2cccc(-c3cc(N[C@H]4CC[C@H](NC[C@H](O)C(F)(F)F)CC4)ncc3Cl)n2)CCOCC1 [Compound 490, 4-(((5′-chloro-2′-((trans-4-(((S)-3,3,3-trifluoro-2-hydroxypropyl)amino)cyclohexyl)amino)-[2,4′-bipyridin]-6-yl)amino)methyl)tetrahydro-2H-pyran-4-carbonitrile]	< 0.5
CS(=O)(=O)CCN[C@H]1CC[C@H](Nc2cc(-c3cccc(NCC4(C#N)CCOCC4)n3)c(Cl)cn2)CC1 [Compound 422, 4-(((5′-chloro-2′-((trans-4-((2-(methylsulfonyl)ethyl)amino)cyclohexyl)amino)-[2,4′-bipyridin]-6-yl)amino)methyl)tetrahydro-2H-pyran-4-carbonitrile]	< 0.5
CC1(CNc2nc(-c3cc(N[C@H]4CC[C@@H](N)CC4)ncc3Cl)ccc2F)CCOCC1 [Compound 466]	3.9
CC(C)N[C@H]1CC[C@H](Nc2cc(-c3cccc(NCC4(C#N)CCOCC4)n3)c(Cl)cn2)CC1 [Compound 412, 4-(((5′-chloro-2′-((trans-4-(isopropylamino)cyclohexyl)amino)-[2,4′-bipyridin]-6-yl)amino)methyl)tetrahydro-2H-pyran-4-carbonitrile]	< 0.5
N#CC1(CNc2cccc(-c3cc(N[C@H]4CC[C@H](N5CCOCC5)CC4)ncc3Cl)n2)CCOCC1 [Compound 442, 4-(((5′-chloro-2′-((trans-4-morpholinocyclohexyl)amino)-[2,4′-bipyridin]-6-yl)amino)methyl)tetrahydro-2H-pyran-4-carbonitrile]	0.6
N#CC1(CNc2cccc(-c3cc(NC4CCC(N)CC4)ncc3Cl)n2)CC1 (centres unmarked) [Compound 413, 1-(((2′-((4-aminocyclohexyl)amino)-5′-chloro-[2,4′-bipyridin]-6-yl)amino)methyl)cyclopropane-carbonitrile]	< 0.5
COC[C@@H](C)N[C@H]1CC[C@H](Nc2cc(-c3cccc(NCC4(C#N)CCOCC4)n3)c(F)cn2)CC1 [Compound 471, 4-(((5′-fluoro-2′-((trans-4-(((R)-1-methoxypropan-2-yl)amino)cyclohexyl)amino)-[2,4′-bipyridin]-6-yl)amino)methyl)tetrahydro-2H-pyran-4-carbonitrile]	< 0.5
N#CC1(CNc2cccc(-c3cc(N[C@H]4CC[C@H](NCC5CCCO5)CC4)ncc3F)n2)CCOCC1 (stereo partly drawn) [Compound 482, 4-(((5′-fluoro-2′-((trans-4-(((tetrahydrofuran-2-yl)methyl)amino)cyclohexyl)amino)-[2,4′-bipyridin]-6-yl)amino)methyl)tetrahydro-2H-pyran-4-carbonitrile]	< 0.5
CC(C)(NC[C@H]1CC[C@H](Nc2cc(-c3cccc(NCC4(C#N)CCOCC4)n3)c(Cl)cn2)CC1)C(=O)O [Compound 429, 2-(((trans-4-((5′-chloro-6-(((4-cyanotetrahydro-2H-pyran-4-yl)methyl)amino)-[2,4′-bipyridin]-2′-yl)amino)cyclohexyl)methyl)amino)-2-methylpropanoic acid]	1.3

The next lines start with the values.

IC50 [nM]	SMILES
480	N#CC1(CNc2cccc(-c3cc(N[C@H]4CCCc5ccccc54)ncc3Cl)n2)CCOCC1 [Compound 501, (S)-4-(((5′-chloro-2′-((1,2,3,4-tetrahydronaphthalen-1-yl)amino)-[2,4′-bipyridin]-6-yl)amino)methyl)tetrahydro-2H-pyran-4-carbonitrile]
1.8	NC(=O)C1(CNc2cccc(-c3cc(N[C@H]4CC[C@H](N)CC4)ncc3F)n2)CCOCC1 [Compound 485, 4-(((2′-((trans-4-aminocyclohexyl)amino)-5′-fluoro-[2,4′-bipyridin]-6-yl)amino)methyl)tetrahydro-2H-pyran-4-carboxamide]
< 0.5	N#CC1(CNc2cccc(-c3cc(N[C@H]4CC[C@H](NC[C@H]5CCCO5)CC4)ncc3F)n2)CCOCC1 [Compound 484, 4-(((5′-fluoro-2′-((trans-4-((((R)-tetrahydrofuran-2-yl)methyl)amino)cyclohexyl)amino)-[2,4′-bipyridin]-6-yl)amino)methyl)tetrahydro-2H-pyran-4-carbonitrile]
1.6	COC[C@H](C)N[C@H]1CC[C@H](Nc2cc(-c3ccc(F)c(NCC4CCOC(C)(C)C4)n3)c(Cl)cn2)CC1 (stereo partly drawn) [Compound 457, 5′-chloro-N6-((2,2-dimethyltetrahydro-2H-pyran-4-yl)methyl)-5-fluoro-N2′-(trans-4-(((S)-1-methoxypropan-2-yl)amino)cyclohexyl)-[2,4′-bipyridine]-2′,6-diamine]
< 0.5	N#CC1(CNc2cccc(-c3cc(N[C@H]4CC[C@H](N)CC4)ncc3Cl)n2)CCOCC1 [Compound 464, 4-(((2′-((trans-4-aminocyclohexyl)amino)-5′-chloro-[2,4′-bipyridin]-6-yl)amino)methyl)tetrahydro-2H-pyran-4-carbonitrile]
≤ 0.5	COC[C@@H](C)N[C@H]1CC[C@H](Nc2cc(-c3nc(NCC4(C#N)CCOCC4)cnc3Cl)c(Cl)cn2)CC1 [Compound 506, 4-(((5-chloro-6-(5-chloro-2-((trans-4-(((R)-1-methoxypropan-2-yl)amino)cyclohexyl)amino)pyridin-4-yl)pyrazin-2-yl)amino)methyl)tetrahydro-2H-pyran-4-carbonitrile]
< 0.5	N#CC1(CNc2cccc(-c3cc(N[C@H]4CC[C@H](NCC5CCCO5)CC4)ncc3Cl)n2)CCOCC1 (stereo partly drawn) [Compound 468, 4-(((5′-chloro-2′-((trans-4-(((tetrahydrofuran-2-yl)methyl)amino)cyclohexyl)amino)-[2,4′-bipyridin]-6-yl)amino)methyl)tetrahydro-2H-pyran-4-carbonitrile]
≤ 0.5	N#CC1(CNc2cccc(-c3cc(N[C@H]4CC[C@H](CNc5cc(Cl)ncn5)CC4)ncc3Cl)n2)CCOCC1 [Compound 505, 4-(((5′-chloro-2′-((trans-4-(((6-chloropyrimidin-4-yl)amino)methyl)cyclohexyl)amino)-[2,4′-bipyridin]-6-yl)amino)methyl)tetrahydro-2H-pyran-4-carbonitrile]
1.1	COC[C@]1(O)CC[C@@H](Nc2cc(-c3cccc(NCC4(C#N)CCOCC4)n3)c(Cl)cn2)CC1 [Compound 448, 4-(((5′-chloro-2′-((cis-4-hydroxy-4-(methoxymethyl)cyclohexyl)amino)-[2,4′-bipyridin]-6-yl)amino)methyl)tetrahydro-2H-pyran-4-carbonitrile]
< 0.5	COC[C@@H](C)N[C@H]1CC[C@H](Nc2cc(-c3cccc(NCC4(C#N)CC4)n3)c(Cl)cn2)CC1 [Cmpd 400, 1-(((5′-chloro-2′-((trans-4-(((R)-1-methoxypropan-2-yl)amino)cyclohexyl)amino)-[2,4′-bipyridin]-6-yl)amino)methyl)cyclopropane-carbonitrile]
1.7	CC(O)(C(=O)N[C@H]1CC[C@H](Nc2cc(-c3cccc(NCC4(C#N)CCOCC4)n3)c(Cl)cn2)CC1)C(F)(F)F (stereo partly drawn) [Compound 431, N-(trans-4-((5′-chloro-6-(((4-cyanotetrahydro-2H-pyran-4-yl)methyl)amino)-[2,4′-bipyridin]-2′-yl)amino)cyclohexyl)-3,3,3-trifluoro-2-hydroxy-2-methylpropanamide]
< 0.5	COCCN[C@H]1CC[C@H](Nc2cc(-c3nc(NCC4(C#N)CCOCC4)cnc3Cl)c(Cl)cn2)CC1 [Compound 508, 4-(((5-chloro-6-(5-chloro-2-((trans-4-((2-methoxyethyl)amino)cyclohexyl)amino)pyridin-4-yl)pyrazin-2-yl)amino)methyl)tetrahydro-2H-pyran-4-carbonitrile]
1.2	N#CC1(CNc2cccc(-c3cc(N[C@H]4CC[C@@H](N)CC4)ncc3Cl)n2)CCOCC1 [Compound 465, 4-(((2′-((cis-4-aminocyclohexyl)amino)-5′-chloro-[2,4′-bipyridin]-6-yl)amino)methyl)tetrahydro-2H-pyran-4-carbonitrile]
